≈ marks a conversion by molar mass, not a printed value.
Tests used:
[1] = Competitive slurry test (XRD of the solid); assay type: physicochemical; conditions: for form transformation in competitive slurry: ethanol/water (1/1) (80°C), acetonitrile (70°C), acetonitrile/water (70°C)
Protocol: The relative stability of Form II and Form III was investigated by competitive slurry test. Approximately 5 mg of Form II and Form III were weighed, mixed, and then added in 1/1 ratio of methanol/n-heptane, ethanol and ethyl acetate, respectively, to prepare a suspension. The suspension was stirred at room temperature for several hours, then centrifuged and the solid was analyzed by XRD.
Competitive slurry studies were conducted to investigate the relative stability of Forms III, IV, and V. 5 mg of Forms III, IV, and V were weighed and mixed uniformly. Suspensions were prepared respectively in ethanol (80°C), ethanol/water (1/1) (80°C), water (60°C), water (25°C), acetonitrile (70°C), and acetonitrile/water (1/1) (70°C). The suspensions were stirred for 12 hours, and the solids were centrifuged and analyzed by XRD. Table 6: Competitive slurry results of Forms III, IV and V

[2] = Solubility determination in buffer solutions (HPLC); assay type: physicochemical; conditions: for solubility: 37°C
Protocol: Appropriate amounts of Forms III, IV, and V were weighed and added to buffer solutions with pH 4.5 and 6.8 to prepare a suspension at 5 mg/mL. The resulting suspension was stirred at 37°C, and samples were collected and analyzed at 5, 30, 60, and 240 minutes. Use a syringe to draw approximate 1 mL of the suspension, filter it through a membrane filter, and dilute it several times before testing the resulting filtrate with HPLC, using the area normalization method to determine the solubility. Table 8 Tests of different crystal forms at various pH values

[3] = Pharmacokinetic (PK) determination in adult Beagle dogs; assay type: in vivo
Protocol: Healthy adult male Beagle dogs were obtained from Beijing Marshall Biotechnology Co., Ltd. Three groups were divided into this study and administered via oral gavage at a dose of 19.5 mg/kg. Animals receiving oral gavage were fasted overnight and from 10 hours before to 4 hours after administration. Blood samples were collected 15 minutes, 30 minutes, 45 minutes, 1 hour, 1.5 hours, 3 hours, 4 hours, 6 hours, 8 hours, and 24 hours after gavage. Blood samples (1 mL) were collected from the forelimb vein or other suitable venous sampling methods and placed in labeled EDTA-K2 anticoagulant tubes. After gentle inversion to thoroughly mix the anticoagulant with the blood, the tubes were immediately placed on wet ice. Plasma was separated by centrifugation within 1 hour of blood collection in the condition of 4°C, 2200g, and 10 minutes. The separated plasma was placed in labeled EP tubes. Plasma samples were immediately stored in an ultra-low temperature freezer until analysis. Plasma samples should be stored in a refrigerator at -70°C before testing. Plasma samples were extracted using protein precipitation, and the extracts were analyzed by LC/MS/MS.

[4] = Stability investigation (HPLC purity at 220 nm and XRD); assay type: physicochemical; conditions: for chemical stability / crystal form change: 40°C/75%RH and 25°C/60%RH for 7 days
Protocol: The analysis method is as follows: Octadecylsilane bonded silica gel was used as the filler (Kromasil C 18 4.6 mm × 250 mm, 5 µm); 0.01 mol/L potassium dihydrogen phosphate solution (pH was adjusted to 3.0 with phosphoric acid) was used as mobile phase A, and methanol was used as mobile phase B. Gradient elution was performed according to the table below; the detection wavelength was 220 nm; the column temperature was 40°C; the flow rate was 1.0 ml/min; the injection volume was 10 µl, and the HPLC purity was calculated by the area normalization method.
Appropriate amounts of Form III, IV, and V were weighed in sample bottles and stored uncovered at 80°C, 40°C/75% RH, and 25°C/60% RH for 7 days. Samples were collected at 0, 1, 3, and 7 days for HPLC and XRD analysis. Table 7 Stability test results of Form III, IV and V

[5] = Determination of bioavailability in adult SD rats; assay type: in vivo; conditions: Sprague-Dawley, rat, plasma, female SD rats
Protocol: Healthy adult female Sprague-Dawley rats were obtained from Beijing Weitong Lihua Laboratory Animal Technology Co., Ltd. The study was conducted in two phases: first, animals received a single intravenous injection of 1 mg/kg; second, one week later, the same group received a single oral gavage of the suspension at a dose of 10 mg/kg. Animals receiving oral gavage were fasted overnight and from 10 hours before to 4 hours after administration. Animals in the intravenous group were not restricted to food. Blood samples were collected at 0.083, 0.25, 0.5, 1, 2, 4, 6, 8, and 24 hours after administration for the intravenous group and at 0.25, 0.5, 1, 2, 4, 8, and 24 hours after administration for the oral group. After isoflurane anesthesia by using a small animal anesthesia machine, 0.4 ml of whole blood was obtained from the retinal venous plexus. The sample was centrifuged at 4000 rpm for 20 minutes at 4°C. Plasma was separated and placed in labeled EP tubes. Plasma samples were immediately stored in an ultra-low temperature freezer until analysis. Plasma samples should be stored in a refrigerator at -70°C before testing. Plasma samples were extracted using protein precipitation, and the extracts were analyzed by LC/MS/MS.

JAK1/2/3 = test: Enzymatic activity (IC50) test, Lance Ultra TR-FRET; conditions: JAK1/2/3 kinase platform; kinase not given
[6] = male Beagle dogs, oral gavage 19.5 mg/kg, 19.5 mg/kg
[7] = male Beagle dogs, oral gavage 19.5 mg/kg

SMILES | solubility ([2]; PH=4.5 buffer, 5 min) | solubility ([2]; PH=4.5 buffer, 30 min) | solubility ([2]; PH=4.5 buffer, 60 min) | solubility ([2]; PH=4.5 buffer, 240 min) | solubility ([2]; pH=6.8 buffer, 5 min) | solubility ([2]; pH=6.8 buffer, 30 min) | solubility ([2]; pH=6.8 buffer, 60 min) | solubility ([2]; pH=6.8 buffer, 240 min) | AUC 0-inf [3, 6] | AUC 0-t [3, 6] | C max [3, 6] | 220nm (HPLC purity) ([4]; 0 days) | 220nm (HPLC purity) ([4]; 25°C/60%RH, 3 days, uncovered) | 220nm (HPLC purity) ([4]; 25°C/60%RH, 7 days, uncovered) | 220nm (HPLC purity) ([4]; 40°C/75%RH, 3 days, uncovered) | 220nm (HPLC purity) ([4]; 40°C/75%RH, 7 days, uncovered) | chemical stability ([4]; 80°C) | crystal form change ([4]; 80°C) | 220nm (HPLC purity) ([4]; 80°C, 1 day, uncovered) | 220nm (HPLC purity) ([4]; 80°C, 3 days, uncovered) | also measured
N#CCC1(n2cc(-c3ncnc4[nH]ccc34)c(N)n2)CN(C2CCN(C(=O)c3ccnc(C(F)(F)F)c3F)CC2)C1 [listing 1 of 3 here] | 41.3 µg/mL (≈ 72.6 µM) | 60.1 µg/mL (≈ 106 µM) | 65.5 µg/mL (≈ 115 µM) | 84 µg/mL (≈ 148 µM) | 11.2 µg/mL (≈ 19.7 µM) | 29.9 µg/mL (≈ 52.6 µM) | 33.2 µg/mL (≈ 58.4 µM) | 41.5 µg/mL (≈ 73 µM) | 13248 ng·h/mL | 13174 ng·h/mL | 4057 ng/mL | 99.83% | 99.90% | 99.95% | 99.89% | 99.90% | relatively stable | did not change | 99.90% | 99.89% | relative stability of Form II and Form III ([1]; Form II and Form III mixed, methanol/n-heptane 1/1, ethanol, ethyl acetate, room temperature, several hours, XRD): more stable than Form II; form transformation in competitive slurry [1]: transformed into Form IV; Tmax ([3]; dog, plasma, male Beagle dogs, oral gavage 19.5 mg/kg, read-out: Tmax): 1 h; half-life ([3]; male, beagle, dog, plasma, po, 19.5 mg/kg, male Beagle dogs, oral gavage 19.5 mg/kg): 2.45 h; 220nm (HPLC purity) ([4]; 80°C, 7 days, uncovered): 99.91%
N#CCC1(n2cc(-c3ncnc4[nH]ccc34)c(N)n2)CN(C2CCN(C(=O)c3ccnc(C(F)(F)F)c3F)CC2)C1 [listing 2 of 3 here] | 47.1 µg/mL (≈ 82.8 µM) | 65.6 µg/mL (≈ 115 µM) | 70 µg/mL (≈ 123 µM) | 73.4 µg/mL (≈ 129 µM) | 24.7 µg/mL (≈ 43.4 µM) | 37.2 µg/mL (≈ 65.4 µM) | 40.2 µg/mL (≈ 70.7 µM) | 40.2 µg/mL (≈ 70.7 µM) | 27789 ng·h/mL | 27750 ng·h/mL | 6197 ng/mL | 99.57% | 99.59% | 99.63% | 99.53% | 99.63% | relatively stable | did not change | 99.57% | 99.60% | relative stability of the forms ([1]; conclusion from competitive slurry of Forms III, IV, V): the most stable of the five forms; AUC 0-inf ([5]; IV (1 mg/kg)): 456 ng·h/mL; half-life ([5]; IV (1 mg/kg)): 0.61 h; clearance ([5]; IV (1 mg/kg), read-out: Cl s,app): 37.7 mL/min/kg; Vd ([5]; IV (1 mg/kg), read-out: VZ): 1.5 L/kg; bioavailability ([5]; PO (10 mg/kg) vs IV (1 mg/kg)): 17%; AUC 0-inf ([5]; PO (10 mg/kg), suspension): 783 ng·h/mL; Cmax ([5]; PO (10 mg/kg), suspension): 475 ng/mL; Tmax ([5]; PO (10 mg/kg), suspension): 0.5 h; half-life ([5]; PO (10 mg/kg), suspension): 1.9 h; solubility relative to Form V ([2]; pH = 4.5 (postprandial gastric juice), 240 min): twice that of Form V; solubility relative to Form V ([2]; pH = 6.8 (simulated intestinal fluid), 240 min): twice that of Form V; pharmacokinetic properties after PO administration ([3]; comparison of the crystal forms): better pharmacokinetic properties; Tmax [3, 7]: 1.00 h; t 1/2 [3, 6]: 2.63 h; 220nm (HPLC purity) ([4]; 80°C, 7 days, uncovered): 99.57%
N#CCC1(n2cc(-c3ncnc4[nH]ccc34)c(N)n2)CN(C2CCN(C(=O)c3ccnc(C(F)(F)F)c3F)CC2)C1 [listing 3 of 3 here] | 11.2 µg/mL (≈ 19.7 µM) | 25.8 µg/mL (≈ 45.4 µM) | 28.9 µg/mL (≈ 50.8 µM) | 35.6 µg/mL (≈ 62.6 µM) | 7.6 µg/mL (≈ 13.4 µM) | 13.3 µg/mL (≈ 23.4 µM) | 16 µg/mL (≈ 28.1 µM) | 19 µg/mL (≈ 33.4 µM) | 8431 ng·h/mL | 8354 ng·h/mL | 2440 ng/mL | 98.02% | 98.10% | 97.87% | 98.02% | 98.01% | relatively stable | did not change | 98.05% | 98.03% | form transformation in competitive slurry [1]: transformed into Form IV; Tmax [3, 7]: 1.00 h; t 1/2 [3, 6]: 2.86 h; 220nm (HPLC purity) ([4]; 80°C, 7 days, uncovered): 98.02%
N#CCC1(n2cc(-c3ncnc4[nH]ccc34)cn2)CN(C2CCN(C(=O)c3ccnc(C(F)(F)F)c3F)CC2)C1 [Itacitinib, reference compound] |  |  |  |  |  |  |  |  |  |  |  |  |  |  |  |  |  |  |  |  | IC50 (JAK1/2/3): < 10 nM
N#CCC1(n2cc(-c3ncnc4[nH]ccc34)c(N)n2)CN(C2CCN(Cc3ccnc(C(F)(F)F)c3F)CC2)C1 [compound of formula I (amorphous form), 2-(3-(3-amino-4-(7H-pyrrolo[2,3-d]pyrimidin-4-yl)-1H-pyrazol-1-yl)-1-(1-(3-fluoro-2-(trifluoromethyl)isonicotinyl)piperidin-4-yl)azetidin-3-yl)acetonitrile] |  |  |  |  |  |  |  |  |  |  |  |  |  |  |  |  |  |  |  |  | IC50 (JAK1/2/3): < 10 nM

Reference: EP4682149A1 (Prime Gene Therapeutics Co., Ltd., priority 2023, dated 2024)
